The source of these data is patent publication US20250129012A1, “ANTI-INFLAMMATORY AND ANALGESIC COMPOUNDS AND USE THEREOF” (JIANGSU ATOM BIOSCIENCE AND PHARMACEUTICAL CO., LTD., priority 2021, published 2025).

In series [1] the test system is TNF-α. Description: Inflammatory factor experiment B: TNF-α in knee synovial tissue (ELISA). Format: in vivo, SD rats. The note with it: Rattus norvegicus, po; synovial tissue of knee joints, 48 h after modeling; dose 0.6 mg/kg; read-out: TNF-α percentage decrease %. (In general: ELISA stands for enzyme-linked immunosorbent assay.)
The subject of series [2] is IL-1β. Briefly: Inflammatory factor experiment B: IL-1β in knee synovial tissue (ELISA). The note with it: Rattus norvegicus, po; synovial tissue of knee joints, 48 h after modeling; dose 0.6 mg/kg; read-out: IL-1β percentage decrease %. Format: in vivo, SD rats.
The test system of series [3] is ICR mice. Briefly: Acute toxicity test in mice by single administration. The conditions noted are these: 14 days, deaths/animals. Format: in vivo. The procedure:
(§1) Compounds 34, 48, 55 and 58 were ground with 0.5% CMC-Na before administration, and prepared into a suspension of the corresponding concentration for gavage, with an administration volume of 0.1 mL/10 g.
(§2) ICR mice, SPF grade, weighing 18-20 g, 6-8 weeks old, were provided by Nantong University. The Laboratory Animal Production License was SCXK (Su) 2016-0010 and Laboratory Animal Use License was SYXK (Su) 2017-0035.
(§3) After overnight fasting, the drug was administered once by gavage in a volume of 0.1 mL/10 g. The normal group was given the corresponding volume of 0.5% CMC-Na solution according to body weight. The state of the animal was observed after administration, the animals were weighed daily and the number of deaths was recorded for 14 consecutive days.

Assay in series [4]: as above
Format: in vivo, ICR mice. The note with it: both sexes, ICR, mouse, in vivo, po; acute toxicity, mice, single gavage; read-out: Maximum tolerated dose (MTD). The procedure:
as §1, §2, §3

For series [5], the system named is gouty arthritis rats (sodium urate, right ankle and knee joint cavities). Description: Pharmacodynamics experiment B on gouty arthritis rats: ankle swelling rate. Format: in vivo, SD rats. The note with it: Rattus norvegicus, po, dose 0.6 mg/kg gavage, read-out: Swelling rate (ankle). The essentials:
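Male SD rats dosed by gavage at 0.6 mg/kg (0.5% CMC-Na suspension) daily for 7 days before and 3 days after injection of 0.2 mL sodium urate solution into right ankle and knee joints. Ankle circumference measured before and 2-48 h after modeling; swelling rate = swelling degree/baseline ×100%, mean values.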

In series [6] the test system is IL-6. Description: Inflammatory factor experiment B: IL-6 in knee synovial tissue (ELISA). Format: in vivo, SD rats. The note with it: Rattus norvegicus, po; synovial tissue of knee joints, 48 h after modeling; dose 0.6 mg/kg; read-out: IL-6 percentage decrease %.
The nature of series [7]: In vivo pharmacokinetics in SD rats. The note with it: Sprague-Dawley, rat; for F / AUC(0-inf) / MRT inf / Vd / clearance / Cmax / Tmax: in vivo; for half-life: plasma, read-out: t1/2 (converted). The essentials:
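SD rats received compound intravenously (0.5 mg/mL solution) or by oral gavage (1 mg/mL, fasted overnight), both formulated in DMSO/Solutol HS15/saline. Plasma compound concentrations were measured by LC/MS/MS. Non-compartmental parameters were then calculated.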

The subject of series [8] is gouty arthritis rats (sodium urate, right ankle and knee joint cavities). Briefly: Pharmacodynamics experiment B on gouty arthritis rats: gait score. The note with it: for Gait Score: dose 0.6 mg/kg gavage, mean; for Gait versus model group, in words: compounds 0.6 mg/kg, colchicine 0.6 and 1.2 mg/kg. Format: in vivo, SD rats. The essentials:
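Male SD rats (180-220 g) received test compounds by gavage as 0.5% CMC-Na suspensions, once daily for 7 days before modeling and for 3 days afterward. Gouty arthritis was induced by injecting 0.2 mL sodium urate solution into the right ankle and knee joint cavities. Gait was graded 0-3 using modified Coderre criteria, and group mean scores were compared with the model group by ANOVA-Dunnett T-test (P<0.05).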

For series [9], the system named is TNF-α. Briefly: Inflammatory factor experiment A: TNF-α in gouty arthritis rats. The note with it: synovial tissue of knee joints; dose 0.6 mg/kg gavage; day 10. Format: in vivo, SD rats. The procedure: (§4) Compounds 14, 17 and 26 were prepared by grinding with 0.5% CMC-Na before administration and into a suspension for gavage at the corresponding concentration (0.06 mg/mL), with a dosage volume of 10 mL/kg. Colchicine, purchased from Sun Chemical Technology (Shanghai) Co., Ltd. with batch no. 49ETRRAS, and was prepared by grinding with 0.5% CMC-Na before administration and into a suspension for gavage at the corresponding concentration (0.06 mg/mL), with a dosage volume of 10 mL/kg.
(§5) The compounds in each group were prepared into a suspension of the corresponding concentration, and the dosage volume was 10 mL/kg.
(§6) The crystalline arthritis model was prepared by intra-articular injection of urate crystals (40 mg/mL in the left ankle joint of each rat). Different doses of the test compounds were given separately by gavage administration. The day of administration was defined as day 1 of the experiment, and the compounds were administered once a day for 10 consecutive days (pre-administration of the drug for 7 days prior to modeling, modeling on day 8, and continuation of the drug for 3 days). The experiment ended on day 10. […]

For series [10], the system named is IL-6. Description: Inflammatory factor experiment A: IL-6 in gouty arthritis rats. The conditions noted are these: synovial tissue of knee joints; dose 0.6 mg/kg gavage; day 10. Format: in vivo, SD rats. The procedure: as §4, §5, §6
Where [11] appears, read: Intravenous injection - 1 mg/kg.

Read-outs that look alike come from different tables or passages of the source. Marks after values point to notes of the source that are not given here. Bounds are passed on as bounds.

In general, MTD refers to the highest dose tested that stayed within the study's limit of toxicity. Broadly, the AUC(0-inf) is total exposure, with the tail of the curve extrapolated. One may read the MRT inf as a mean duration of stay, worked out from the concentration-time curve. One may read the Vd as the apparent volume that relates the amount in the body to the concentration in plasma or blood. A high value points to extensive tissue distribution. The term clearance denotes the rate of elimination divided by the concentration. High values mean efficient removal, low ones inefficient removal. What is called Cmax is the peak of the concentration-time curve. Broadly, the Tmax is the time at which the peak concentration occurs. For `CNC(=O)c1ccc2c(cc1=O)[C@@H](NC(C)=O)CCc1cc(OC)c(OC)c(OC)c1-2` [Compound 48, (S)-7-acetamido-1,2,3-trimethoxy-N-methyl-9-oxo-5,6,7,9-tetrahydrobenzo[a]heptalene-10-carboxamide], the results for the inhibition in vivo at 0.6 mg/kg in series [1], in series [2] and in [6] were 81.6%, 82.2% and 110%, respectively. The Mortality rate in series [3] (single gavage dose 50 mg/kg), in [3] (single gavage dose 100 mg/kg), in series [3] (single gavage dose 400 mg/kg) and in [3] (single gavage dose 600 mg/kg) was 0/6 each time. Besides, the MTD at 14 days in series [4] was greater than 600 mg/kg. The change in vivo at 0.6 mg/kg in series [5] (2 h) came to 9.42%; in [5] (4 h), 15.5%; in [5] (8 h) it was 21%; in series [5] (10 h) it was 21.5%; in series [5] (24 h), 22.4%; in series [5] (48 h), 13.6%. In [7] (10 mg/kg), the F is listed as 57.0%. In addition, the area under the curve AUC(0-inf) worked out at 580 ng·h/mL in series [7] (iv, 1 mg/kg) and 3300 ng·h/mL in series [7] (po, 10 mg/kg). The MRT inf came out at 0.641 h in [7] (iv, 1 mg/kg) and 1.83 h in series [7] (po, 10 mg/kg). For the same compound, the volume of distribution (Vd) in series [7] (iv, 1 mg/kg) is 1.11 L/kg. The compound also showed a clearance in [7] (iv, 1 mg/kg) of 29.2 mL/min/kg. In series [7] (po, 10 mg/kg), this compound gave a Cmax of 1930 ng/mL. In addition, the Tmax in series [7] (po, 10 mg/kg) is 0.25 h. Further, the half-life in series [7] (po, Gavage - 10 mg/kg) is 1.61 h; in series [7] (setting [11]), 0.536 h. Further, the “Gait Score” value in series [8] (2 h) is 0; in series [8] (4 h), 0.1; in [8] (8 h), 0.1**; in [8] (10 h), 0**; in series [8] (24 h) it was 0*; in [8] (48 h), 0. Moreover, the “Gait versus model group, in words” value in series [8] is “significant improvement in gait occurred at different time points”.

Take `COc1cc2c(c(OC)c1OC)-c1ccc(C(=O)Nc3ccccc3)c(=O)cc1[C@@H](NC(C)=O)CC2` [Compound 58, (S)-7-acetamido-1,2,3-trimethoxy-N-phenyl-9-oxo-5,6,7,9-tetrahydrobenzo[a]heptalen-10-carboxamide]: the inhibition in vivo at 0.6 mg/kg is 80.5% in [1], 87.5% in series [2] and 86.7% in [6]. Besides, the Mortality rate in series [3] (single gavage dose 50 mg/kg), in series [3] (single gavage dose 100 mg/kg), in [3] (single gavage dose 400 mg/kg) and in [3] (single gavage dose 600 mg/kg) was 0/6 in each case. Also, the MTD at 14 days in [4] is greater than 600 mg/kg. For the same compound, the change in vivo at 0.6 mg/kg in [5] (2 h) was 6.48%; in [5] (4 h) it was 13.8%; in series [5] (8 h), 17.2%; in [5] (10 h), 20.4%; in [5] (24 h), 18.1%; in series [5] (48 h), 8.42%. For the same compound, in series [7] (10 mg/kg), the F stood at 109%. The AUC(0-inf) came out at 1390 ng·h/mL in series [7] (iv, 1 mg/kg) and 15100 ng·h/mL in series [7] (po, 10 mg/kg). Besides, the MRT inf in series [7] (iv, 1 mg/kg) amounted to 2.04 h; in series [7] (po, 10 mg/kg) it was 4.58 h. Further, the Vd in [7] (iv, 1 mg/kg) was 1.44 L/kg. Also, in series [7] (iv, 1 mg/kg), the clearance was 12.1 mL/min/kg. In addition, the peak level in series [7] (po, 10 mg/kg) (Cmax) was 2040 ng/mL. Besides, the time of peak concentration (Tmax) in series [7] (po, 10 mg/kg) came to 2.67 h. The half-life in series [7] (po, Gavage - 10 mg/kg) is 2.22 h; in [7] (setting [11]), 1.92 h. Moreover, the “Gait Score” value is on record as 0 in series [8] (2 h); 0* in [8] (4 h); 0.3 in [8] (8 h); 0.2** in series [8] (10 h); 0 in series [8] (24 h); 0 in series [8] (48 h). Moreover, in [8], the “Gait versus model group, in words” value is “significant improvement in gait occurred at different time points”.

Take `COc1cc2c(c(OC)c1OC)-c1cc(Br)c(OC)c(=O)cc1[C@@H](NC(C)=O)CC2` [Compound 14, (S)—N-(11-bromo-1,2,3,10-tetramethoxy-9-oxo-5,6,7,9-tetrahydrobenzo[a]heptalen-7-yl)acetamide]: the “Decreased TNF-α percentage %” value in series [9] was 125.78%. Further, the “Decreased IL-6 percentage %” value in series [10] was determined as 119.58%.
